Values quoted from earlier work as cited in patent US9993454B2, “Solid nanoparticle formulation of water insoluble pharmaceutical substances with reduced Ostwald ripening” (Luminus Biosciences, Inc., priority 2006, dated 2018).

Conditions: most test systems

For `C/C(=C\c1csc(C)n1)[C@@H]1C[C@@H]2O[C@]2(C)CCC[C@H](C)[C@H](O)[C@@H](C)C(=O)C(C)(C)[C@@H](O)CC(=O)O1` [epothilone B], the “effectiveness relative to epothilone A” value is listed as “approximately ten-time more effective”.
